The structures appear in SMILES notation. Read-outs that look alike come from different tables or passages of the source.

Assay [1] relates to HCV 1a-H77-C316Y transient subgenomic replicon in Huh-7 derived cell line. The assay can be described thus: microbe, parasite or virus in culture. Format: cell-based, HCV genotype 1a. The conditions noted are these: for EC50: Hepatitis C virus, Huh-7, read-out: Transient Replicon 1a H77-C316Y 5% FBS EC50; for Transient Replicon Fold Resistance C316Y/1a: ratio of transient replicon EC50s, C316Y / 1a H77. An outline of the steps:
(§1)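 Transient format: T7-transcribed replicon RNA lacking Neo, electroporated into Huh-7-derived cells (5×10^3/well), input RNA checked by luciferase at 4 h. Three-fold compound dilution series, 0.5% DMSO, 4 days at 37° C; EC50 from luciferase signal in lysed cells.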

The test system of assay [2] is HCV 1a-H77 transient subgenomic replicon in Huh-7 derived cell line. The assay can be described thus: microbe, parasite or virus in culture. It counts as cell-based, HCV genotype 1a. Conditions: Hepatitis C virus, Huh-7; transient replicon, 5% FBS; read-out: Transient Replicon 1a H77 5% FBS EC50. An outline of the steps: as §1
Assay [3] addresses T1, HCV NS5B polymerase 1b BK strain (Hepatitis C virus genotype 1b, UniProt P26663).
T1 construct: six-histidine tag; made in house; host or cells: E. coli
The assay can be described thus: HCV NS5B polymerase enzymatic inhibition assay, strain 1b BK. Format: biochemical. The conditions noted are these: enzyme, strain 1b BK; read-out: HCV Polymerase Strain 1b BK IC50. The method in brief:
(§2)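 Recombinant NS5B (residues 1–570, His-tagged, E. coli-expressed) copied 5 nM of a 2.1 kb HCV 1b negative-strand 3′-end RNA template with 20 μM CTP, 20 μM ATP and 0.284 μM [3H]UTP for 3 h at 30 °C. Spermine-precipitated RNA was filter-captured and counted, and IC50 was fitted by nonlinear regression.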

The subject of assay [4] is chimeric replicon with genotype 4a NS5B. Briefly: microbe, parasite or virus in culture. Format: cell-based, HCV genotype 4a. The conditions noted are these: Hepatitis C virus, read-out: 4a chimera 5% FBS EC50.
The test system of assay [5] is chimeric replicon with 2a-J6CF-derived NS5B. Briefly: microbe, parasite or virus in culture. It counts as cell-based, HCV genotype 2a. The conditions noted are these: Hepatitis C virus, read-out: 2a chimera 5% FBS EC50.
Assay [6] deals with chimeric replicon with genotype 3a NS5B. Briefly: microbe, parasite or virus in culture. It counts as cell-based, HCV genotype 3a. The conditions noted are these: Hepatitis C virus, read-out: 3a chimera 5% FBS EC50.
In assay [7] the test system is chimeric replicon with genotype 2b NS5B. The assay can be described thus: microbe, parasite or virus in culture. Format: cell-based, HCV genotype 2b. Conditions: Hepatitis C virus, read-out: 2b chimera 5% FBS EC50.
The subject of assay [8] is HCV 1a-H77 subgenomic replicon. The assay can be described thus: microbe, parasite or virus in culture. Format: cell-based, HCV genotype 1a. The conditions noted are these: Hepatitis C virus, stable replicon.
The subject of assay [9] is HCV NS5B polymerase 1a-H77-C316Y. The assay can be described thus: biochemical. More on the design: species or system HCV genotype 1a. Conditions: ratio of enzyme IC50s, 1a H77-C316Y / 1a H77. An outline of the steps: as §2
Assay [10] has as its target T2, HCV NS5B polymerase 1a-H77-C316Y (Hepatitis C virus genotype 1a, UniProt P27958, C2736Y).
T2 construct: six-histidine tag; made in house; host or cells: E. coli
The assay can be described thus: biochemical. More on the design: species or system HCV genotype 1a. An outline of the steps: as §2

For assay [11], the target named is T3, HCV NS5B polymerase 1a-H77 (Hepatitis C virus genotype 1a, UniProt P27958).
T3 construct: six-histidine tag; made in house; host or cells: E. coli
The assay can be described thus: biochemical. More on the design: species or system HCV genotype 1a. Conditions: enzyme, strain 1a H77; read-out: HCV Polymerase Strain 1a H77 IC50. The method in brief:
as §2

Assay [12] has as its system HCV 1b-BB7 subgenomic replicon. Briefly: microbe, parasite or virus in culture. Format: cell-based, HCV genotype 1b. The conditions noted are these: Hepatitis C virus, stable replicon.
The mark [13] stands for this setting: 5% FBS, absence of human plasma, read-out: Stable Replicon 1a H77 5% FBS EC50.
[14] abbreviates: strain 1a H77, 5% FBS + 40% human plasma, read-out: 1a H77 5% FBS + 40% Human Plasma EC50.
Setting [15] is: strain 1a H77, 5% FBS, no human plasma, read-out: 1a H77 5% FBS EC50.
Setting [16] is: strain 1a H77, 5% FBS, read-out: 1a H77 5% FBS EC50.
[17] abbreviates: strain 1b BB7, 5% FBS + 40% human plasma, read-out: 1b BB7 5% FBS + 40% Human Plasma EC50.
Setting [18] is: strain 1b BB7, 5% FBS, no human plasma, read-out: 1b BB7 5% FBS EC50.
The mark [19] stands for this setting: strain 1b BB7, 5% FBS, read-out: 1b BB7 5% FBS EC50.

T3 sequence (P27958 2421-2990): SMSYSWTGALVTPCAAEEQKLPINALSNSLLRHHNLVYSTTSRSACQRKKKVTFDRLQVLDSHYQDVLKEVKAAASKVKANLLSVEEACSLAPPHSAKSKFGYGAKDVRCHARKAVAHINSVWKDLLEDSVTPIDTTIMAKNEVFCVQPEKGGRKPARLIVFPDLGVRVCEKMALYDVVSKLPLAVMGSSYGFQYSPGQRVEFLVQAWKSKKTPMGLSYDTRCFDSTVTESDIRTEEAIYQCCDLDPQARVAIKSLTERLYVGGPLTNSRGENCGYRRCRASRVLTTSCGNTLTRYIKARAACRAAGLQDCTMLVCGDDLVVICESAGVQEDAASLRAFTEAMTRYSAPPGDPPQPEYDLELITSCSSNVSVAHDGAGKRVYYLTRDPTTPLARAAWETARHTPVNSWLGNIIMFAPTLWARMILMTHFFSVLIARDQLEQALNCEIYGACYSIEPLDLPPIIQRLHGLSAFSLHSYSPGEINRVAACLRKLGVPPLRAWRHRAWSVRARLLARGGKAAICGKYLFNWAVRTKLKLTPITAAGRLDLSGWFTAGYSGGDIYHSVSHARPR
T1 sequence (P26663 2420-2989): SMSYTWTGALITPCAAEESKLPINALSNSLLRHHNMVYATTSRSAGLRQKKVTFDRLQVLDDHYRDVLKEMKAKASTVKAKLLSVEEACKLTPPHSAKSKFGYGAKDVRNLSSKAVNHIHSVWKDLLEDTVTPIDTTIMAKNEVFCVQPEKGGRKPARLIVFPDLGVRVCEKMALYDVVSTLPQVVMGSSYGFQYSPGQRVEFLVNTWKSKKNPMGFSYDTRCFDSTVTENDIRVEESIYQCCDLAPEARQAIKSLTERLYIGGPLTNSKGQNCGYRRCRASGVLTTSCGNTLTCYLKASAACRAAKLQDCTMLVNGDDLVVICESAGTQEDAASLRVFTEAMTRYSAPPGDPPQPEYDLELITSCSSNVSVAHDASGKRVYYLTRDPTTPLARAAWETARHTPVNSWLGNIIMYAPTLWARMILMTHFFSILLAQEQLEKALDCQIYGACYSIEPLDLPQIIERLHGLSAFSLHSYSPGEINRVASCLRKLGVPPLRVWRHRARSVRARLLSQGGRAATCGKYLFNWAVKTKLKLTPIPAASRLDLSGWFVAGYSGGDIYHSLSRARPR
T2 sequence (P27958 2421-2990 C2736Y): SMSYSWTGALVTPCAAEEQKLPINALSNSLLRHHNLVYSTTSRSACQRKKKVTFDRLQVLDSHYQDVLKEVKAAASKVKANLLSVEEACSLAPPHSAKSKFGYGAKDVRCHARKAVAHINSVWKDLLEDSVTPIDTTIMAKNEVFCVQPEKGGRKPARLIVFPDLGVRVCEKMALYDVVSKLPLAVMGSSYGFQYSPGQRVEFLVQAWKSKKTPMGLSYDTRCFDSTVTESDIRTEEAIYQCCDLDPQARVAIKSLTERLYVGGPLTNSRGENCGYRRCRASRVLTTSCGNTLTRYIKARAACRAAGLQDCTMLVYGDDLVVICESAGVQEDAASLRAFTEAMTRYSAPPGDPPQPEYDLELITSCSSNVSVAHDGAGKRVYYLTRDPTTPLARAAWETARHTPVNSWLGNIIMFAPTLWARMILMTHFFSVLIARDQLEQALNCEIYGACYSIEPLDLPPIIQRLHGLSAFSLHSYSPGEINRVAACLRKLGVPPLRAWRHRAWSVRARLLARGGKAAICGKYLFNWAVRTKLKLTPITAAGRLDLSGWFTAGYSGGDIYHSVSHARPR

Regarding `CS(=O)(=O)N(CCCCC(=O)O)c1cc2oc(-c3ccc(F)cc3)c(-c3ncc[nH]3)c2cc1C1CC1` [Example 92, 5-{[5-cyclopropyl-2-(4-fluorophenyl)-3-(1H-imidazol-2-yl)-1-benzofuran-6-yl](methylsulfonyl)amino}pentanoic acid], the EC50 in [1] stood at 480 nM; in [2], 19.4 nM; in [4], 283 nM; in assay [5], 409 nM; in assay [6], 43 nM; in assay [7], 352 nM. Moreover, the EC50 in assay [8] (setting [13]) amounted to 21.4 nM; in assay [8] (setting [14]), 175 nM; in assay [8] (setting [15]) it was 21.4 nM; in assay [8] (setting [16]) it was 21.4 nM; in [12] (setting [17]), 142 nM; in assay [12] (setting [18]), 25.9 nM. In addition, the EC50 in [12] (setting [19]) is 25.9 nM. Further, the “Transient Replicon Fold Resistance C316Y/1a” value in assay [1] came out at 25 fold. The 50% inhibitory concentration (IC50) amounted to 6 nM in assay [3], 43 nM in [10] and 4.9 nM in assay [11]. Besides, the “C316Y/1a Fold Resistance” value in assay [9] worked out at 9 fold.

For `CS(=O)(=O)N(CCC1CCS(=O)(=O)C1)c1cc2oc(-c3ccc(F)cc3)c(C3=NOCN3)c2cc1C1CC1` (stereo not drawn) [Example 149, N-[5-cyclopropyl-3-(4,5-dihydro-1,2,4-oxadiazol-3-yl)-2-(4-fluorophenyl)-1-benzofuran-6-yl]-N-[2-(1,1-dioxidotetrahydrothiophen-3-yl)ethyl]methanesulfonamide], the EC50 in assay [1] is 124 nM; in assay [2], 7.3 nM; in assay [4] it was 21 nM; in assay [5], 54 nM; in [6], 7 nM; in assay [7], 34 nM. The EC50 in [8] (setting [13]) is 8.8 nM; in assay [8] (setting [14]), 1020 nM; in assay [8] (setting [15]), 8.8 nM; in [8] (setting [16]), 8.8 nM; in assay [12] (setting [17]), 643 nM; in assay [12] (setting [18]) it was 4 nM. For the same compound, in assay [12] (setting [19]), the EC50 stood at 4 nM. For the same compound, the “Transient Replicon Fold Resistance C316Y/1a” value in assay [1] was determined as 17 fold. Moreover, the IC50 in assay [3] was determined as 9 nM; in assay [10] it was 41 nM; in assay [11], 3.5 nM. The “C316Y/1a Fold Resistance” value in assay [9] is 12 fold.

For the compound `CS(=O)(=O)CCCCN(c1cc2oc(-c3ccc(F)cc3)c(-c3ncc[nH]3)c2cc1C1CC1)S(C)(=O)=O` [Example 6, N-[5-cyclopropyl-2-(4-fluorophenyl)-3-(1H-imidazol-2-yl)-1-benzofuran-6-yl]-N-[4-(methylsulfonyl)butyl]methanesulfonamide], the EC50 in [1] was 105 nM; in assay [2], 3.2 nM; in assay [4] it was 16.1 nM; in assay [5] it was 26 nM; in [6], 3.3 nM; in assay [7], 18.8 nM. The EC50 in assay [8] (setting [13]) came to 8.3 nM; in assay [8] (setting [14]) it was 61.3 nM; in assay [8] (setting [15]), 8.3 nM; in assay [8] (setting [16]), 8.32 nM; in assay [12] (setting [17]), 36.2 nM; in [12] (setting [18]), 3.9 nM. For the same compound, the EC50 in assay [12] (setting [19]) turned out to be 3.9 nM. In addition, in assay [1], the “Transient Replicon Fold Resistance C316Y/1a” value was 33 fold. Further, the values for the half-inhibitory concentration (IC50) in assay [3], in assay [10] and in assay [11] were 16 nM, 69 nM and 5.2 nM, respectively. The “C316Y/1a Fold Resistance” value in assay [9] is 13 fold.

The values above are taken from patent US20160355530A1, “HEPATITIS C INHIBITORS AND USES THEREOF” (AbbVie Inc., priority 2010, published 2016).
